In data set [1] the test system is beagle dogs. As to the kind of experiment: 7-day repeat-dose oral toxicity and toxicokinetic study, Phase II (non-GLP). Type of data set: in vivo. Here is the method:
(§1) In Phase II of this study, 0, 30, 100, or 300 mg/kg/d of SRP-001 was administered once daily for seven consecutive days to 1 Beagle dog/sex/dose (Calvert Labs/Altasciences, Scott Township, PA USA). Mortality/morbidity was observed twice daily and once prior to scheduled sacrifice. Clinical observations were evaluated prior to each dose administration and at approximately 1–3 h post-dose and once prior to scheduled sacrifice on day 8. Body weights were recorded on days 1 and 7, and a fasted body weight was recorded prior to scheduled sacrifice on day 8. Food consumption was recorded daily. Blood for evaluation of hematology, coagulation, and clinical chemistry parameters and urine for urinalysis was collected from all animals prior to treatment initiation and from all Phase II animals prior to scheduled sacrifice on day 8. Blood for toxicokinetic evaluation was collected at selected time points on days 1 and 7. Selected tissues were harvested and weighed at necropsy. No microscopic evaluations were performed. […] The clinical observations corroborated with findings of red discoloration in the duodenum of the control group female, the jejunum of the low-dose male, and the colon of both high-dose dogs.
(§2) The reason for this is unclear; however, it may be due to a low sample size (n = 2 per dose group). Half-lives ranged from approximately 1 to 3.5 h and increased with dose and time. […] Based on these observations, SRP-001 was considered to be tolerated at 300 mg/kg when administered once daily for 7 consecutive days. Our toxicokinetic analysis indicates elevated systemic exposures to SRP-001 on Day 1 relative to Day 7. […] A plausible mechanistic explanation for this observed decrease is the induction of metabolic enzymes, likely involving UGT and potentially CYP3A enzymes, as elaborated above and substantiated by previous research. […] The NOAEL exposure parameters align well with the highest SAD dose in the Phase 1 trial, reinforcing the drug's safety profile. The observed PK decrease is not attributed to emesis but likely to enzymatic induction and will be the subject for future investigation.

Assay in data set [2]: as above
Type of data set: in vivo. As to conditions: both sexes, Beagle, dog, in vivo, 300 mg/kg/day, 30, 100, 300 mg/kg/d, days 1 and 7. As for the experimental part: as §1, §2

Data set [3] concerns beagle dogs. As to the kind of experiment: 28-day oral toxicity study with 14-day recovery (GLP). Type of data set: in vivo, dog. Here is the method: (§3) SRP-001 was supplied by Olon Ricerca Bioscience as an off-white powder. The test article was then prepared into dosing suspensions for oral administration via gavage (Calvert Labs/Altasciences, Scott Township, PA USA). Thirty-two experimentally naïve Beagle dogs (16 males and 16 females), 8–9 months old and weighing 6.7–10.5 kg for males and females at the outset of the study, were administered 0, 165, 330, or 495 mg/kg/d. Animals were dosed three times daily (3–5 h between doses) for 28 consecutive days. Prior to this dosing schedule, the dosing was initiated with once daily dosing at 0, 100, 300, or 900 mg/kg at a dose volume of 5 to 10 ml/kg. Due to adverse clinical signs noted following dosing of all groups at a dose volume of 10 ml/kg, dosing of the animals was suspended on day 2 for males and day 1 for females. The study was restarted with T.I.D. dosing in lower dose volume to reduce vehicle-related toxicity.
(§4) In-life data from the initial start of the study using once daily dosing were not included in the report but are maintained in the study file. Following the restart of the study, the study was conducted as follows. Mortality/morbidity was performed twice daily and once prior to the scheduled sacrifice. Animals were observed prior to each dose administration and 1–3 h after each dose administration. Animals were also observed once daily on non-dosing days and once prior to scheduled sacrifice. Body weights were recorded prior to randomization/selection, prior to the first dose administration on day 1 and weekly thereafter. Food consumption was determined daily. Ophthalmology examinations and electrocardiograms were performed before treatment initiation and during the last week of dosing. Blood for evaluation of hematology, coagulation and clinical chemistry and urine for urinalysis was collected prior to treatment initiation and on days 29 and 43. Blood for toxicokinetic evaluation was collected at selected timepoints on days 1 and 28. All surviving animals were sacrificed on day 29 or day 43. Selected tissues were harvested at necropsy, selected organs weighed, and selected tissues evaluated microscopically.
(§5) Due to the limited magnitude of the changes in hematology parameters and the corresponding changes in reticulocytes, this finding was not considered adverse.
(§6) This finding was indicative of the biliary system starting to be overwhelmed and was considered adverse. Other microscopic findings of the liver included Kupffer cell pigment, Kupffer cell erythrophagocytosis, and Kupffer cell hypertrophy/hyperplasia. The Kupffer cell changes were thought to be, at least in part, due to phagocytosis of erythrocytes resulting in the accumulation of cytoplasmic pigment and increased demand for Kupffer cells resulting in hypertrophy/hyperplasia. These microscopic changes correlated with increased liver organ weights. Microscopic evaluation also identified thyroid gland follicular cell hypertrophy.
(§7) Only microscopic changes in Kupffer cell pigment and erythrophagocytosis and minimal increased erythroid cellularity of the bone marrow were still present in Group-4 animals following the recovery period. Exposure to SRP-001 was dose-dependent and generally dose-proportional to greater than dose-proportional from 165 to 330 mg/kg/d and less than dose-proportional from 330 to 495 mg/kg/d. Exposure to SRP-001 following 28 consecutive days of oral dosing was 2 to 5 times less than exposure observed on day 1. Based on the clinical signs, microscopic changes, and clinical pathology changes, the no-adverse-effect level for SRP-001 was 330 mg/kg/d when given T.I.D. for 28 d.

Assay in data set [4]: as above
In kind it is in vivo, dog. As to conditions: both sexes, Beagle, dog, in vivo, oral; given T.I.D. for 28 days; read-out: No adverse effect level (NOAEL). As for the experimental part: as §3, §4, §5, §6, §7

In data set [5] the target is T1, hERG current (Homo sapiens, UniProt Q12809).
T1 construct: expressed in transfected cells; host or cells: human embryonic kidney cells
T1 sequence (Q12809 whole entry): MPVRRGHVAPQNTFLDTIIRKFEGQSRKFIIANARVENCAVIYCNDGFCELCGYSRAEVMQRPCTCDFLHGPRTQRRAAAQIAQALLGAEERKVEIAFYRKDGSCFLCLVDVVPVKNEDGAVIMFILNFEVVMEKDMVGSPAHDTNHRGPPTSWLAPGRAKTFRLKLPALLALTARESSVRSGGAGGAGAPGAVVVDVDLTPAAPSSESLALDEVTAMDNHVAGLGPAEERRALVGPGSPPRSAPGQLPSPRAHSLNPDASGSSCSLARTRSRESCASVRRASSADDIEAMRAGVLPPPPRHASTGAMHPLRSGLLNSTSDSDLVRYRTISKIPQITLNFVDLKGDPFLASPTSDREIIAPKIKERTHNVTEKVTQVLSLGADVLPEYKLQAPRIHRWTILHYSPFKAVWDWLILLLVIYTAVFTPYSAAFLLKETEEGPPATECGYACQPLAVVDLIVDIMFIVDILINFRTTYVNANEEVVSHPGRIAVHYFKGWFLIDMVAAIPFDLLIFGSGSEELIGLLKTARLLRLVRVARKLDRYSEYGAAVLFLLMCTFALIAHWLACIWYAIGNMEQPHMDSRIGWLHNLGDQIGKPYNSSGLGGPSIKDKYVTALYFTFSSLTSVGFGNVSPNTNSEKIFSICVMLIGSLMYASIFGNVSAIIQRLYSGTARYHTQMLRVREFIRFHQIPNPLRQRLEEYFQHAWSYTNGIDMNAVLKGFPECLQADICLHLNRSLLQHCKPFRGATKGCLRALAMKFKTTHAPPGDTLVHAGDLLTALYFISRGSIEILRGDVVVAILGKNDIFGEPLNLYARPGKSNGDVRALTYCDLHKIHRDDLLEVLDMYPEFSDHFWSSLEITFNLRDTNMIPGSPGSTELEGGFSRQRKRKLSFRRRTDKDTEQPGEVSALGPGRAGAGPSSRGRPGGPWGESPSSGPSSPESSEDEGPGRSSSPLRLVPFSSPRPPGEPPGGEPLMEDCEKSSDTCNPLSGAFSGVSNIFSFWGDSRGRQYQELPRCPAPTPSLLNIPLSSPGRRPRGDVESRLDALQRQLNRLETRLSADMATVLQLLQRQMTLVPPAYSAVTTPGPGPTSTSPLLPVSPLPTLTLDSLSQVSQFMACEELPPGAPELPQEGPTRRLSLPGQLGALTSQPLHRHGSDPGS
As to the kind of experiment: Cardiotoxicity assay (hERG). The following applies: human embryonic kidney cells. Type of data set: cell-based. As for the experimental part: The effects of SRP-001 on hERG current amplitude at physiologic temperatures were evaluated over a nominal concentration range of 0.1 μM to […]. A vehicle group (10% DMSO) was included in the study for comparison, and dofetilide (10 nM) was used as a reference substance. The vehicle and positive controls indicated appropriate sensitivity of the test systems. […] Next, the potential acute effects of oral SRP-001 on cardiovascular function in conscious telemetered beagle dogs was done using a Latin Square design; 4 male naïve beagle dogs each received vehicle (10% DMSO: 10% labrasol: 80% PEG400) and three doses (30, 90, and 150 mg/kg) of SRP-001 nanosuspension by oral gavage. […] A single dose was administered on the day of dosing, and a washout period of seven days was allowed between doses. One-min means of hemodynamic parameters, as well as ECG parameters and body temperature, were measured for a period of at least 24 h. One-min tracings of the ECGs were obtained at 15 min prior to dosing and at 30 min, 1, 2, 4, 8, 12, and 24 h post-dose. Qualitative evaluation of the ECGs was done by a board-certified veterinary cardiologist.

[6] abbreviates: both, Beagle, dog, in vivo, po, 28 d.

The source of these data is paper PMC11096368, “Transcriptomic signature, bioactivity and safety of a non-hepatotoxic analgesic generating AM404 in the midbrain PAG region” (Scientific Reports, 2024).

One may read the Tmax as the time at which the peak concentration occurs. As usually defined, the NOAEL is the highest dose or exposure tested at which no adverse effect was seen.

As for `CCN(CC)C(=O)c1ccccc1S(=O)(=O)NCC(=O)Nc1ccc(O)cc1` [SRP-001, N,N-diethyl-2-[[2-(4-hydroxyanilino)-2-oxo-ethyl]sulfamoyl]benzamide], in data set [1] (dog, in vivo), the “AUC and Cmax levels versus dose” value is recorded as “increased in a dose-dependent manner”; the “Body weight, food consumption, hematology, clinical chemistry, coagulation parameters” value is “No SRP-001-related differences”; the Clinical signs result is “loose or soft feces and emesis”. For the same compound, the “Dose considered to be tolerated” value in data set [1] (once daily for 7 consecutive days) came to 300 mg/kg. The time to peak (Tmax) in data set [2] was in the range of 0.5 to 1.5 h. Besides, the half-life in data set [2] (read-out: Half-lives) fell in the range of 1 to 3.5 h. The “Body weights, food consumption, ophthalmology, electrocardiology, coagulation, urinalysis” value in data set [3] (28 days) is “No SRP-001 related changes”. In addition, the “Reversibility after 14-day recovery period” value in data set [3] (both, Beagle, dog, in vivo, 14 d) is reported as “nearly all SRP-001-related changes observed on day 29 were reversible”. Besides, in data set [3] (setting [6]), the “Doses without treatment-related adverse effects” value is given as “up to 330 mg/kg/day” and the “Exposure after 28 consecutive days relative to day 1” value is 2-5 times less. Moreover, in data set [3] (dog, in vivo), the Clinical chemistry parameters result was “increases in triglycerides and alkaline phosphatase and decreases in cholesterol”; the Clinical signs entry is “emesis, loose feces, and salivation”; the Hematology parameters result is “decreases in red blood cells, hemoglobin, hematocrit, and mean corpuscular hemoglobin concentration”; the “Reversibility after 14-day recovery period” value is “nearly all SRP-001 related changes observed on Day 29 were reversible”. Besides, the NOAEL at 28 d in data set [4] is 330 mg/kg/day. Moreover, the “Signal in in vitro hERG assay” value in data set [5] was “absent relevant signal”.
